This is an account of results in patent publication US7582645B2, “Pyrimidine derivatives for treatment of hyperproliferative disorders” (Bayer Pharmaceuticals Corporation, priority 2003, dated 2009).

SMILES strings stand for the structures. Counter-ions that a name gives are not always drawn.

The test system of the first assay is HCT116 cells. Nature of the assay: HCT116 cytotoxic activity assay (Alamar Blue, 72 h). The settings on record: Homo sapiens, HCT-116, 72 h compound exposure, greater than 500 nM but less than or equal to 2 μM. It is filed as cell-based. The method, then:
Representative compounds of this invention were tested for cytotoxicity using the above-described assay procedure with the following results: […]
In turn, `COCCN1CCN(c2cc(Oc3ccc(Nc4cc(-c5ccccc5)nc(N)n4)cc3)ccn2)CC1` [Example 136, N4*-[4-({2-[4-(2-methoxyethyl)piperazin-1-yl]pyridin-4-yl}oxy)phenyl]-6-phenylpyrimidine-2,4-diamine] came in with an IC50 of 0.5 to 2 µM.

Compound `Nc1nc(Nc2ccc(Oc3ccnc(C(F)(F)F)c3)cc2)cc(-c2ccc(Cl)c(Cl)c2)n1` [Example 112, 6-(3,4-dichlorophenyl)-N4*-(4-{[2-(trifluoromethyl)pyridin-4-yl]oxy}phenyl)pyrimidine-2,4-diamine] yielded an IC50 of 0.5 to 2 µM.

For `COc1ccc(-c2cc(Nc3ccc(Oc4ccnc(C)c4)cc3)nc(N)n2)cc1OC` [Example 319, 6-(3,4-dimethoxyphenyl)-N4*-{4-[(2-methylpyridin-4-yl)oxy]phenyl} pyrimidine-2,4-diamine], the IC50 was in the range of 0.5 to 2 µM.

Compound `COc1ccc(C(C)C)cc1-c1cc(Nc2ccc(Oc3ccnc(C#N)c3)cc2)nc(N)n1` [Example 245, 4-(4-{[2-amino-6-(5-isopropyl-2-methoxyphenyl)pyrimidin-4-yl]amino}phenoxy)pyridine-2-carbonitrile] yielded an IC50 of 0.5 to 2 µM.

`NC(=O)c1cc(Oc2ccc(Nc3cc(-c4cccc(F)c4)nc(N)n3)cc2)ccn1` [Example 256, 4-(4-{[2-amino-6-(3-fluorophenyl)pyrimidin-4-yl]amino}phenoxy) pyridine-2-carboxamide] registered an IC50 of 0.5 to 2 µM.

For `Nc1nc(Nc2ccc(Oc3cc(N4CCOCC4)ccn3)cc2)cc(-c2ccccc2)n1` [Example 105, N4*-{4-[(4-morpholin-4-ylpyridin-2-yl)oxy]phenyl}-6-phenylpyrimidine-2,4-diamine], the IC50 lay in the range of 0.5 to 2 µM.

On to `Cc1cc(Oc2ccc(Nc3cc(-c4cccc(O)c4)nc(N)n3)cc2)ccn1` [Example 306, 3-[2-amino-6-({4-[(2-methylpyridin-4-yl)oxy]phenyl}amino)pyrimidin-4-yl]phenol], for which the IC50 lay within 0.5 to 2 µM.

`Cc1ccc(Cc2ccc(Nc3cc(-c4ccccc4)nc(N)n3)cc2)cc1` [Example 89, N^4-[4-(4-methylbenzyl)phenyl]-6-phenylpyrimidine-2,4-diamine] came in with an IC50 of 0.5 to 2 µM.

Still in this assay, the particulars now being: Homo sapiens, HCT-116, 72 h compound exposure, greater than 2 μM.
As to `COc1ccc(C(C)C)cc1-c1cc(Nc2cccc(Oc3ccnc(C(N)=O)c3)c2)nc(N)n1` [Example 289, 4-(3-{[2-amino-6-(5-isopropyl-2-methoxyphenyl)pyrimidin-4-yl]amino}phenoxy)pyridine-2-carboxamide], the IC50 was greater than 2 µM.

In the case of `COc1ncc(-c2cc(Nc3ccc(Oc4ccnc(C#N)c4)cc3)nc(N)n2)c(OC)n1` [Example 237, 4-{4-[(2-amino-2′,4′-dimethoxy-4,5′-bipyrimidin-6-yl)amino]phenoxy} pyridine-2-carbonitrile], the IC50 was greater than 2 µM.

`CC(C)c1cccc(-c2cc(Nc3ccc(Oc4ccnc(C(N)=O)c4)cc3)nc(N)n2)c1` [Example 270, 4-(4-{[2-amino-6-(3-isopropylphenyl)pyrimidin-4-yl]amino}phenoxy) pyridine-2-carboxamide] came in with an IC50 greater than 2 µM.

Still in this assay, the particulars now being: Homo sapiens, HCT-116, 72 h compound exposure, less than or equal to 500 nM.
As for `Nc1nc(Nc2ccc(Oc3ccnc(Cl)c3)cc2)cc(-c2ccccc2)n1` [Example 48, N^4-[4-(2-Chloro-pyridin-4-yloxy)-phenyl]-6-phenyl-pyrimidine-2,4 diamine], the IC50 is no more than 0.5 µM.

With `N#Cc1cc(Oc2ccc(Nc3cc(-c4ccoc4)nc(N)n3)cc2)ccn1` [Example 228, 4-(4-{[2-amino-6-(3-furyl)pyrimidin-4-yl]amino}phenoxy)pyridine-2-carbonitrile 4-(4-{[6-amino-2-(3-furyl)pyrimidin-4-yl]amino}phenoxy) pyridine-2-carbonitrile], the IC50 is no more than 0.5 µM.

In turn, `COc1ccc(Oc2ccc(Nc3cc(-c4ccccc4)nc(N)n3)cc2)cc1` [Example 13, N^4-[4-(4-methoxyphenoxy)phenyl]-6-phenylpyrimidine-2,4-diamine] had an IC50 of no more than 0.5 µM.

In turn, `Cc1cc(Oc2ccc(Nc3cc(-c4ccc(C)c(N)c4)nc(N)n3)cc2)ccn1` [Example 323, 6-(3-amino-4-methylphenyl)-N4*-{4-[(2-methylpyridin-4-yl)oxy]phenyl} pyrimidine-2,4-diamine] had an IC50 of no more than 0.5 µM.

For the compound `CCc1ccc(-c2cc(Nc3ccc(Oc4ccnc(C)c4)cc3)nc(N)n2)cc1` [Example 317, 6-(4-ethylphenyl)-N4*-{4-[(2-methylpyridin-4-yl)oxy]phenyl} pyrimidine-2,4-diamine], the IC50 was no more than 0.5 µM.

For the compound `Nc1nc(Nc2ccc(Oc3ccnc(C(F)(F)F)c3)cc2)cc(-c2cc(F)ccc2F)n1` [Example 160, 6-(2,5-difluorophenyl)-N4*-(4-{[2-(trifluoromethyl)pyridin-4-yl]oxy}phenyl)pyrimidine-2,4-diamine], the IC50 was no more than 0.5 µM.

For `Cc1cc(Oc2ccc(Nc3cc(-c4ccc(N(C)C)cc4)nc(N)n3)cc2)ccn1` [Example 318, 6-[4-(dimethylamino)phenyl]-N4*- {4-[(2-methylpyridin-4-yl)oxy]phenyl}pyrimidine-2,4-diamine], the 50% inhibitory concentration (IC50) is no more than 0.5 µM.

The compound `Nc1ccc(-c2cc(Nc3ccc(Oc4ccnc(Cl)c4)cc3)nc(N)n2)cc1` [Example 116, 6-(4-aminophenyl)-N4*- {4-[(2-chloropyridin-4-yl)oxy]phenyl}pyrimidine-2,4-diamine] registered an IC50 of no more than 0.5 µM.

`COC(=O)c1cc(Oc2ccc(Nc3cc(-c4ccccc4)nc(N)n3)cc2)ccn1` [Example 19, methyl 4-{4-[(2-amino-6-phenylpyrimidin-4-yl)amino]phenoxy}pyridine-2-carboxylate] displayed an IC50 of no more than 0.5 µM.

As to `COc1cc(-c2cc(Nc3ccc(Oc4ccnc(C(F)(F)F)c4)cc3)nc(N)n2)ccc1OC(=O)CNC(=O)OC(C)(C)C` [Example 149, 4-{2-amino-6-[(4-{[2-(trifluoromethyl)pyridin-4-yl]oxy}phenyl)amino]pyrimidin-4-yl}-2-methoxyphenyl N-(tert-butoxycarbonyl)glycinate], the half-inhibitory concentration (IC50) was no more than 0.5 µM.

As for `Nc1nc(Nc2ccc(Oc3ccnc(C(=O)NCC(O)CO)c3)cc2)cc(-c2ccccc2)n1` (centres unmarked) [Example 80, 4-{4-[(2-amino-6-phenylpyrimidin-4-yl)amino]phenoxy}-N-(2,3-dihydroxypropyl)pyridine-2-carboxamide], the concentration for half-maximal inhibition (IC50) was no more than 0.5 µM.

For `Nc1nc(Nc2ccc(Oc3ccnc(Cl)c3)cc2F)cc(-c2ccccc2)n1` [Example 66, N4*-{4-[(2-chloropyridin-4-yl)oxy]-2-fluorophenyl}-6-phenylpyrimidine-2,4-diamine], the IC50 was no more than 0.5 µM.

As to `Nc1nc(Nc2ccc(Oc3ccnc(N4CCOCC4)c3)cc2)cc(-c2ccccc2)n1` [Example 134, N4*-{4-[(2-morpholin-4-ylpyridin-4-yl)oxy]phenyl}-6-phenylpyrimidine-2,4-diamine], the half-maximal inhibitory concentration (IC50) was no more than 0.5 µM.

As to `Nc1nc(Nc2ccc(Oc3ccnc(Cl)c3)c(F)c2)cc(-c2ccccc2)n1` [Example 117, N4*-{4-[(2-chloropyridin-4-yl)oxy]-3-fluorophenyl}-6-phenylpyrimidine-2,4-diamine], the concentration for half-maximal inhibition (IC50) was no more than 0.5 µM.

In turn, `Nc1nc(Nc2cccc(Oc3ccnc(N4CCC[C@@H]4CO)c3)c2)cc(-c2ccccc2)n1` [Example 123, [(2R)-1-(4-{3-[(2-amino-6-phenylpyrimidin-4-yl)amino]phenoxy}pyridin-2-yl)pyrrolidin-2-yl]methanol] showed an IC50 of no more than 0.5 µM.

Compound `N#Cc1cc(Oc2ccc(Nc3cc(-c4ccc(N)cc4)nc(N)n3)cc2)ccn1` [Example 229, 4-(4-{[2-amino-6-(4-aminophenyl)pyrimidin-4-yl]amino}phenoxy) pyridine-2-carbonitrile 4-(4-{[6-amino-2-(4-aminophenyl)pyrimidin-4-yl]amino}phenoxy)pyridine-2-carbonitrile] registered an IC50 of no more than 0.5 µM.

As for `N#Cc1cc(Oc2ccc(Nc3cc(-c4ccc(O)cc4)nc(N)n3)cc2)ccn1` [Example 227, 4-(4-{[2-amino-6-(4-hydroxyphenyl)pyrimidin-4-yl]amino}phenoxy) pyridine-2-carbonitrile 4-(4-{[6-amino-2-(4-hydroxyphenyl)pyrimidin-4-yl]amino}phenoxy) pyridine-2-carbonitrile], the IC50 was no more than 0.5 µM.

In turn, `Cc1ccc(-c2cc(Nc3ccc(Oc4ccnc(C(N)=O)c4)cc3)nc(N)n2)cc1N` [Example 271, 4-(4-{[2-amino-6-(3-amino-4-methylphenyl)pyrimidin-4-yl]amino}phenoxy)pyridine-2-carboxamide] came in with an IC50 of no more than 0.5 µM.

With `N#Cc1cc(Oc2ccc(Nc3cc(-c4cccc(N)c4)nc(N)n3)cc2)ccn1` [Example 238, 4-(4-{[2-amino-6-(3-aminophenyl)pyrimidin-4-yl]amino}phenoxy) pyridine-2-carbonitrile], the 50% inhibitory concentration (IC50) is no more than 0.5 µM.

On to `Nc1nc(Nc2cccc(Oc3ccnc(N4CCCCC4)c3)c2)cc(-c2ccccc2)n1` [Example 119, 6-phenyl-N4*-{3-[(2-piperidin-1-ylpyridin-4-yl)oxy]phenyl}pyrimidine-2,4-diamine], for which the IC50 was no more than 0.5 µM.

On to `Nc1cccc(-c2cc(Nc3ccc(Oc4ccnc(C(F)(F)F)c4)cc3)nc(N)n2)c1` [Example 170, 6-(3-aminophenyl)-N4*-(4-{[2-(trifluoromethyl)pyridin-4-yl]oxy}phenyl) pyrimidine-2,4-diamine hydrochloride], for which the IC50 is no more than 0.5 µM.

The compound `Cc1ccc(-c2cc(Nc3ccc(Oc4ccnc(C(F)(F)F)c4)cc3)nc(N)n2)cc1N` [Example 208, 6-(3-amino-4-methylphenyl)-N4*-(4-{[2-(trifluoromethyl)pyridin-4-yl]oxy}phenyl)pyrimidine-2,4-diamine] displayed a half-inhibitory concentration (IC50) of no more than 0.5 µM.

For the compound `Cc1ccc(F)c(-c2cc(Nc3ccc(Oc4ccnc(C(F)(F)F)c4)cc3)nc(N)n2)c1` [Example 158, 6-(2-fluoro-5-methylphenyl)-N4*-(4-{[2-(trifluoromethyl)pyridin-4-yl]oxy}phenyl)pyrimidine-2,4-diamine], the IC50 is no more than 0.5 µM.

The compound `COc1cc(-c2cc(Nc3ccc(Oc4ccnc(C(F)(F)F)c4)cc3)nc(N)n2)ccc1O` [Example 166, 4-{2-amino-6-[(4-{[2-(trifluoromethyl)pyridin-4-yl]oxy}phenyl)amino]pyrimidin-4-yl}-2-methoxyphenol] registered an IC50 of no more than 0.5 µM.
